Among the data in ChEMBL document CHEMBL3774371, “Pyrrolidinones as Modulators of Neurogenesis” (2016) are EC150 values, retold here.

The structures appear in SMILES notation.

The assay deals with NSC. The assay can be described thus: Neurogenic activity in human NSC assessed as increase in cells measured as ATP level after 4 days by Cell titre glo assay. Format: functional.
With `COc1cc(N2CCN(Cc3cccc(OC(F)(F)F)c3)C2=O)ccc1-c1cn[nH]c1`, the EC150 was 0.0092 µM.
As to `COc1cccc(CN2CCN(c3ccc(-c4cn[nH]c4)c(F)c3)C2=O)c1`, the EC150 stood at 0.0157 µM.
To `CCOc1cccc(CN2CCN(c3ccc(-c4cn[nH]c4)c(OC)c3)C2=O)c1` belongs 0.0739 µM; to `COc1cc(N2CCN(Cc3cccc(C(F)(F)F)c3)C2=O)ccc1-c1cn[nH]c1`, 0.0086 µM; to `COc1cc(N2CCN(Cc3ccncc3)C2=O)ccc1-c1cn[nH]c1`, 0.042 µM.
Consider `O=C1C(c2ccc(F)cc2)CCN1c1ccc(-c2cn[nH]c2)cc1` (stereo not drawn), for which the EC150 was determined as 0.0417 µM.
The result for `COc1cc(N2CCC(c3cccc(F)c3)C2=O)ccc1-c1cn[nH]c1` (stereo not drawn) reads 0.0776 µM; that for `CCOc1cc(N2CCN(Cc3cccc(OC)c3)C2=O)ccc1-c1cn[nH]c1`, 0.8349 µM.
The result for `O=C1C(c2ccc(Cl)cc2)CCN1c1ccc(-c2cn[nH]c2)cc1` (stereo not drawn) reads 0.384 µM.
To `COc1cc(N2CCCN(Cc3ccccc3Cl)C2=O)ccc1-c1cn[nH]c1` belongs 1.9918 µM; to `COc1cccc(C2CCN(c3ccc(-c4cn[nH]c4)cc3)C2=O)c1` (stereo not drawn), 0.0405 µM.
On to `CCC1(c2ccccc2)CCN(c2ccc(-c3cnco3)c(OC)c2)C1=O` (stereo not drawn), for which the EC150 worked out at 3.2257 µM.
The result for `O=C1C(c2cccc(Cl)c2)CCN1c1ccc(-c2cn[nH]c2)cc1` (stereo not drawn) reads 0.2304 µM; that for `CCOc1cc(N2CCN(CCc3ccccc3OC)C2=O)ccc1-c1cn[nH]c1`, 1.9784 µM.
To `COc1cccc(CC2CCN(c3ccc(-c4cn[nH]c4)c(OC)c3)C2=O)c1` (stereo not drawn) belongs 0.0239 µM; to `COc1cc(N2CCC(c3ccccc3)C2=O)ccc1-c1cnco1` (stereo not drawn), 0.4712 µM; to `CCOc1cc(N2CCN(CCc3ccccc3Cl)C2=O)ccc1-c1cn[nH]c1`, 0.1358 µM.
Regarding `COc1cc(N2CCC(c3ccccc3Cl)C2=O)ccc1-c1cnco1` (stereo not drawn), the EC150 was 0.6783 µM.
